Results published in patent publication US10519147B2 (Merck Sharp & Dohme Corp., priority 2015, dated 2019).

Assays:
human Nav1.5 = biological target: T1, human Nav1.5 (Homo sapiens, UniProt Q14524); test: IonWorks Quattro automated patch-clamp, Nav1.5 (selectivity against Nav1.7); format: cell-based; conditions: IonWorks measurement, HEK 293 cells, inactivated state block
T1 construct: expressed in transfected cells; host or cells: HEK 293
Procedure: (§1) Compounds were tested on human Nav1.7 and Nav1.5 channels stably expressed in HEK 293 cells. […] Cells were sealed on a planar substrate using the Population Patch […] (PPC) technology. Electrical access was obtained using both nystatin and amphotericin. A double-pulse protocol was used for the determination of IC50 values for inactivated state block. Nav1.7 and Nav1.5 expressing cells were voltage clamped at −100 mV and −110 mV, respectively. A depolarizing prepulse to −10 mV (Nav1.7) or −30 mV (Nav1.5) for 1000 ms followed by a 10 ms repolarization to −100 mV (Nav1.7) or −110 mV (Nav1.5) was given to generate fractional channel inactivation of 50%, followed by a 10 ms test pulse to −10 mV (Nav1.7) or −30 mV (Nav1.5) to measure peak current in control conditions and after compound addition. The following recording solutions were used (mM). External: 150 NaCl, 2 CaCl2, 5 KCl, 1 Mg Cl2, 10 HEPES, 12 Dextrose; internal: 120 CsF, 30 CsCl, 10 EGTA, 5 HEPES, 5 NaF, 2 MgCl2.
(§2) For all electrophysiology experiments, offline analysis was used to determine percent inhibition as a function of drug concentration. IC50 values were determined by fitting to the Hill equation.

human Nav1.7 = biological target: T2, human Nav1.7 (Homo sapiens, UniProt Q15858); test: IonWorks Quattro automated patch-clamp, inactivated state block of Nav1.7; format: cell-based; conditions: channels stably expressed in HEK 293 cells; double-pulse protocol, inactivated state block; read-out: potency for the Nav 1.7 sodium ion channel (IC50, as measured by IonWorks)
T2 construct: expressed in transfected cells; host or cells: HEK 293
T2 sequence (Q15858 whole entry): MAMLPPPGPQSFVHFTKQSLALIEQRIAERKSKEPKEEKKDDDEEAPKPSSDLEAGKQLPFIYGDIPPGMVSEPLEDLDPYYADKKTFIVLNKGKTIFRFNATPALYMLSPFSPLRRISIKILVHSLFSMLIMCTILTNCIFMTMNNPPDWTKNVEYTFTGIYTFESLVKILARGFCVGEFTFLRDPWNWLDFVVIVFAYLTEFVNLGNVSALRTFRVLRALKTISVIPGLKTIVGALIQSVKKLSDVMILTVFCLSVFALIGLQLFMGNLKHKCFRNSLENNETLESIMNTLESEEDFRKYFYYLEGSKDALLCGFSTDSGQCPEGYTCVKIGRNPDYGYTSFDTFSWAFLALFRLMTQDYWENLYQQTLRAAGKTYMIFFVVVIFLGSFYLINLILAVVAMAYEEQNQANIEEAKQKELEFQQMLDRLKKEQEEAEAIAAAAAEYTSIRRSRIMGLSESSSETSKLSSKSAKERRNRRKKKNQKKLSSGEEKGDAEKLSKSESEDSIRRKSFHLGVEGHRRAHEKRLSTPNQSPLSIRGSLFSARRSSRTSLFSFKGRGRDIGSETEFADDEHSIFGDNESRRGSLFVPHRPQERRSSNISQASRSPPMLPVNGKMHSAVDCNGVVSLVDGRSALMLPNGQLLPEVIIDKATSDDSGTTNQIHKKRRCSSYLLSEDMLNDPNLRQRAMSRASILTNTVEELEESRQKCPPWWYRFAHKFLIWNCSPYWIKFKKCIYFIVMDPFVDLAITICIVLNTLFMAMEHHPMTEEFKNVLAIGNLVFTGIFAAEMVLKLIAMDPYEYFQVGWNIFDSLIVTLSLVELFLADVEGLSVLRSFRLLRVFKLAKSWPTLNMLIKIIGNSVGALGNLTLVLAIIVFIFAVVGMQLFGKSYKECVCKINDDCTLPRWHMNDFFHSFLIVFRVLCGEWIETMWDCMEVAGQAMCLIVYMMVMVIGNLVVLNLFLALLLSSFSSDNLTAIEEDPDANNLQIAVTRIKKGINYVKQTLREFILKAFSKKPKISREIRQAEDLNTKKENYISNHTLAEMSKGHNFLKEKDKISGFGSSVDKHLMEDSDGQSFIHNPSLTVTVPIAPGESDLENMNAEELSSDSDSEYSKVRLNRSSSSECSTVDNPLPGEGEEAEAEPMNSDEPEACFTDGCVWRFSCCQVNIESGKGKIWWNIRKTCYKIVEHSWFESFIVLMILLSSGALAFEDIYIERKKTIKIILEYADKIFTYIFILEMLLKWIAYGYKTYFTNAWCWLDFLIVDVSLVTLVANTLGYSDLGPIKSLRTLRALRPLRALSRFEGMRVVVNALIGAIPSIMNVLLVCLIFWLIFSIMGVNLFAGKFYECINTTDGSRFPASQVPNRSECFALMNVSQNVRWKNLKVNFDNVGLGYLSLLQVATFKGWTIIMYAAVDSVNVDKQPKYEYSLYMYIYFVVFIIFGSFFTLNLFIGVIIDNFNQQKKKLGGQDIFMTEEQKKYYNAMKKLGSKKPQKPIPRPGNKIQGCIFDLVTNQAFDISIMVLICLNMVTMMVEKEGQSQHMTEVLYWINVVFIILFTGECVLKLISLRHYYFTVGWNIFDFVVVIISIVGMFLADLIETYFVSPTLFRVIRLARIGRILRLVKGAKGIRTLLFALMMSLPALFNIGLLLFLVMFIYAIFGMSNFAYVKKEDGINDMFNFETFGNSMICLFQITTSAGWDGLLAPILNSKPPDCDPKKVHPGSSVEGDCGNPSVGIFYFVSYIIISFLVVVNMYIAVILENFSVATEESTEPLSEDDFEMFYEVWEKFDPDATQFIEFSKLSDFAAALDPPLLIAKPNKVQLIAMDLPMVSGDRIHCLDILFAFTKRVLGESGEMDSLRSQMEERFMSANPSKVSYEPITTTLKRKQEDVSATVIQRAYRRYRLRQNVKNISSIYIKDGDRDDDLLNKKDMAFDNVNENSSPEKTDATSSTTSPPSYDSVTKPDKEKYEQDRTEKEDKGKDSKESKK
Procedure: as §1, §2

T1 sequence (Q14524 whole entry): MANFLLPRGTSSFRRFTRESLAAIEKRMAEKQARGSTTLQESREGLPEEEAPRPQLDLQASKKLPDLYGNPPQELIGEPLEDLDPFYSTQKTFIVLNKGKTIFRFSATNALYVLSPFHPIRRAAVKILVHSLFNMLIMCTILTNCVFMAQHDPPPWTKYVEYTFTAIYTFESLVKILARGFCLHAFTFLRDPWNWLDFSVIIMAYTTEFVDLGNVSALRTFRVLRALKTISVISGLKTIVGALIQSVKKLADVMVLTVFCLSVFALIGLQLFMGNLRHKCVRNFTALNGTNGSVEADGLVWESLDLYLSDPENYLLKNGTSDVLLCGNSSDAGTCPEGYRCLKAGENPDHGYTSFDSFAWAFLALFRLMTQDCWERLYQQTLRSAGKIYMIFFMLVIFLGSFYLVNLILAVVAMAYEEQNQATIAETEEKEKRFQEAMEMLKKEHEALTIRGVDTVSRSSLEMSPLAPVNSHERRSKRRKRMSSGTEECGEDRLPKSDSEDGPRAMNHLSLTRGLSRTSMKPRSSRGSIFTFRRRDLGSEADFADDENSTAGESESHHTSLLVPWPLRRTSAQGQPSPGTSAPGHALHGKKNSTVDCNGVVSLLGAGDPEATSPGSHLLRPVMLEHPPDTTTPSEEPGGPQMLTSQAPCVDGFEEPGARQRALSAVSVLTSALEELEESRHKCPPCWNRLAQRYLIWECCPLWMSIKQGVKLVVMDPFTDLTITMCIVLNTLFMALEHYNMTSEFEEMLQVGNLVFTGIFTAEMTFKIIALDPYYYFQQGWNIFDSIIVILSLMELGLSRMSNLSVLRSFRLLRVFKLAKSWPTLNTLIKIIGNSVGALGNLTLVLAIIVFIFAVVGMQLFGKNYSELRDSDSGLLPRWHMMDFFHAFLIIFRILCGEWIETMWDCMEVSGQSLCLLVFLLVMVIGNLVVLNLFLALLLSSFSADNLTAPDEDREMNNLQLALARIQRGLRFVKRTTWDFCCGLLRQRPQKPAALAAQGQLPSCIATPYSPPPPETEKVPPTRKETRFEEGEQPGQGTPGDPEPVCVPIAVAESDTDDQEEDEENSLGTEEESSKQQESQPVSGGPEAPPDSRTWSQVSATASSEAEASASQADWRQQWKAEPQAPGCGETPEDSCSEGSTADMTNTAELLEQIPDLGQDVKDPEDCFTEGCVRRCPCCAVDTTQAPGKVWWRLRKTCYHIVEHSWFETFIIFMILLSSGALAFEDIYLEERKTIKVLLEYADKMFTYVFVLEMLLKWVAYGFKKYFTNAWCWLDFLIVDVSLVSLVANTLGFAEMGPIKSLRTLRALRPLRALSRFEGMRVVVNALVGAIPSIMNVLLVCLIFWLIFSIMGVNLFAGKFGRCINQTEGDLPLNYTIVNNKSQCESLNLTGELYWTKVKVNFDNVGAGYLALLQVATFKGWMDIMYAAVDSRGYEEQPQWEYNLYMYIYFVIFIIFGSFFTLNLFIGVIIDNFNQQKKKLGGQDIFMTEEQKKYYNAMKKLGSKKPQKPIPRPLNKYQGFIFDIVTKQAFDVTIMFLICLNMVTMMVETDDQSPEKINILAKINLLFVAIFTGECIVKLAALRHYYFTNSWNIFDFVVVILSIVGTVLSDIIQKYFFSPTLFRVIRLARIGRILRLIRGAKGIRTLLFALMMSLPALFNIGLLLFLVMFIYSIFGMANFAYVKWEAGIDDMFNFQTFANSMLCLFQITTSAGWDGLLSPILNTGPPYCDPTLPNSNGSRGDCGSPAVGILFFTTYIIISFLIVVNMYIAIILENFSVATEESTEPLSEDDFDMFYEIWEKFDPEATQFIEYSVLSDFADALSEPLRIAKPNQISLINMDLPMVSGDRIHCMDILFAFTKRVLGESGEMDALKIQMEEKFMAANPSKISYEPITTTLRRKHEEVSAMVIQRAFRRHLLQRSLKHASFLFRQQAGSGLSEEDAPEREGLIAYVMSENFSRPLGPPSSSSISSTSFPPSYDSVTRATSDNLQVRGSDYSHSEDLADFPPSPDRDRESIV

Compound	IC50 (human Nav1.7) [nM]	ratio of Nav 1.7 potency:Nav 1.5 potency (human Nav1.5)
N[C@@H]1CCC[C@H]1NCCCCNc1cc(F)c(S(=O)(=O)Nc2nccs2)cc1Cl [Ex 16-09]	9.2	> 3590
C[C@H](N)CNCCCCNc1cc(F)c(S(=O)(=O)Nc2nccs2)cc1Cl [Ex 16-12, 4-[(4-{[(2S)-2-aminopropyl]-amino}butyl)amino]-5-chloro-2-fluoro-N-1,3-thiazol-2-yl-benzene-sulfonamide]	13	> 2540
O=S(=O)(Nc1ncc(F)s1)c1cc(Cl)c(NCCCCNC[C@H]2CCCN2)cc1F [Ex 16-13, 5-chloro-2-fluoro-N-(5-fluoro-1,3-thiazol-2-yl)-4-[(4-{[(2R)-pyrrolidin-2-yl-methyl]amino}-butyl)-amino] benzenesulfonamide]	12	2538
O=S(=O)(Nc1nccs1)c1cc(Cl)c(NCCCCNCC[C@H]2CCCN2)cc1F [Ex 16-14, 5-chloro-2-fluoro-4-{[4-({2-[(2R)-pyrrolidin-2-yl]ethyl}-amino)-butyl]-amino}-N-1,3-thiazol-2-yl-benzenesulfonamide]	39	> 846
O=S(=O)(Nc1ncns1)c1cc(Cl)c(NCCCCNCC[C@H]2CCCN2)cc1F [Ex 16-20, 5-chloro-2-fluoro-4-{[4-({2-[(2R)-pyrrolidin-2-yl]ethyl}-amino)butyl]amino}-N-1,2,4-thiadiazol-5-ylbenzene-sulfonamide]	80	> 412
O=S(=O)(Nc1ncns1)c1cc(Cl)c(NCCCCNCC[C@@H]2CCCN2)cc1F [Ex 16-21, 5-chloro-2-fluoro-4-{[4-({2-[(2S)-pyrrolidin-2-yl]ethyl}-amino)butyl]amino}-N-1,2,4-thiadiazol-5-ylbenzene-sulfonamide]	31	> 1046
O=S(=O)(Nc1ncc(F)s1)c1cc(Cl)c(NCCCCNC2CNC2)cc1F [Ex 16-22, 4-{[4-(azetidin-3-ylamino)-butyl]amino}-5-chloro-2-fluoro-N-(5-fluoro-1,3-thiazol-2-yl)benzene-sulfonamide]	38	> 868
O=S(=O)(Nc1ncc(F)s1)c1cc(Cl)c(NCCCCNCC[C@@H]2CCCN2)cc1F [Ex 16-24, 5-chloro-2-fluoro-N-(5-fluoro-1,3-thiazol-2-yl)-4-{[4-({2-[(2S)-pyrrolidin-2-yl]ethyl}amino)butyl]amino} benzenesulfonamide]	21	> 1571
C[C@H](CCN)NCCCCNc1cc(F)c(S(=O)(=O)Nc2ncc(F)s2)cc1Cl [Ex 16-25, 4-[(4-{[(1R)-3-amino-1-methylpropyl]amino}butyl)amino]-5-chloro-2-fluoro-N-(5-fluoro-1,3-thiazol-2-yl)-benzenesulfonamide]	26	> 1270
CC(C)(CCN)NCCCCNc1cc(F)c(S(=O)(=O)Nc2ncc(F)s2)cc1Cl [Ex 16-27, 4-({4-[(3-amino-1,1-dimethylpropyl)amino]butyl}amino)-5-chloro-2-fluoro-N-(5-fluoro-1,3-thiazol-2-yl)-benzenesulfonamide]	19	> 1737
CNCCCNCCCCNc1cc(F)c(S(=O)(=O)Nc2ncc(F)s2)cc1Cl [Ex 16-28, 5-chloro-2-fluoro-N-(5-fluoro-1,3-thiazol-2-yl)-4-[(4-{[3-(methylamino)-propyl]amino}butyl)amino]-benzenesulfonamide]	25	> 1320
C[C@@H](N)CCNCCCCNc1cc(F)c(S(=O)(=O)Nc2ncc(F)s2)cc1Cl [Ex 16-30, 4-[(4-{[(3R)-3-amino-butyl]amino}butyl)amino]-5-chloro-2-fluoro-N-(5-fluoro-1,3-thiazol-2-yl)benzene-sulfonamide]	14	> 2357
NCCCNCCCCNc1cc(F)c(S(=O)(=O)Nc2ncns2)cc1Cl [Ex 16-32, 4-({4-[(3-aminopropyl)-amino]butyl}amino)-5-chloro-2-fluoro-N-1,2,4-thiadiazol-5-ylbenzene-sulfonamide]	49	> 673
C[C@H](CN)NCCCCNc1cc(F)c(S(=O)(=O)Nc2ncc(F)s2)cc1Cl [Ex 16-59, 4-[(4-{[(1R)-2-amino-1-methylethyl]amino}butyl)-amino]-5-chloro-2-fluoro-N-(5-fluoro-1,3-thiazol-2-yl)-benzenesulfonamide]	17	> 1941
NCC1(NCCCCNc2cc(F)c(S(=O)(=O)Nc3ncc(F)s3)cc2Cl)CCC1 [Ex 16-62, 4-[(4-{[1-(aminomethyl)cyclobutyl]amino}butyl)amino]-5-chloro-2-fluoro-N-(5-fluoro-1,3-thiazol-2-yl)benzenesulfonamide]	36	> 917
N[C@H]1CCC[C@H]1NCCCCNc1cc(F)c(S(=O)(=O)Nc2ncc(F)s2)cc1Cl [Ex 16-64, 4-[(4-{[(1R,2S)-2-aminocyclopentyl]amino}butyl)amino]-5-chloro-2-fluoro-N-(5-fluoro-1,3-thiazol-2-yl) benzenesulfonamide]	23	> 1430
C[C@@H](CN)NCCCCNc1cc(F)c(S(=O)(=O)Nc2nccs2)cc1Cl [Ex 16-68, 4-[(4-{[(1S)-2-amino-1-methylethyl]amino}butyl)amino]-5-chloro-2-fluoro-N-1,3-thiazol-2-ylbenzenesulfonamide]	20	> 1650
O=S(=O)(Nc1nccs1)c1cc(Cl)c(NCCCCNC[C@@H]2CCN2)cc1F [Ex 16-74, 4-[(4-{[(2S)-azetidin-2-ylmethyl]amino}butyl)amino]-5-chloro-2-fluoro-N-1,3-thiazol-2-ylbenzenesulfonamide]	77	> 429

These reach a lower IC50 (human Nav1.7). Values come first.

IC50 (human Nav1.7) [nM]	Compound	ratio of Nav 1.7 potency:Nav 1.5 potency (human Nav1.5)
6	N[C@@H]1CCC[C@H]1NCCCCNc1cc(F)c(S(=O)(=O)Nc2ncns2)cc1Cl [Ex 12-07, 4-[(4-{[(1R,2R)-2-aminocyclo-pentyl]amino}butyl)amino]-5-chloro-2-fluoro-N-1,2,4-thiadiazol-5-yl-benzene-sulfonamide]	> 5500
5	N[C@@H]1CCC[C@H]1NCCCCNc1cc(F)c(S(=O)(=O)Nc2ncc(F)s2)cc1Cl [Ex 16-05, 4-[(4-{[(1R,2R)-2-aminocyclopentyl]-amino}-butyl)-amino]-5-chloro-2-fluoro-N-(5-fluoro-1,3-thiazol-2-yl)-benzene-sulfonamide]	3400
8.1	C[C@@H](N)CNCCCCNc1cc(F)c(S(=O)(=O)Nc2ncc(F)s2)cc1Cl [Ex 16-06, 4-[(4-{[(1R,2R)-2-aminopropyl]amino}-butyl)amino]-5-chloro-2-fluoro-N-(5-fluoro-1,3-thiazol-2-yl)benzene-sulfonamide]	> 4070
8.7	O=S(=O)(Nc1ncc(F)s1)c1cc(Cl)c(NCCCCNC[C@H]2CCCCN2)cc1F [Ex 16-16, 5-chloro-2-fluoro-N-(5-fluoro-1,3-thiazol-2-yl)-4-[(4-{[(2R)-piperidin-2-yl-methyl]amino}butyl)-amino] benzenesulfonamide]	> 3800
8.3	O=S(=O)(Nc1ncns1)c1cc(Cl)c(NCCCCNC[C@H]2CCCN2)cc1F [Ex 16-17, 5-chloro-2-fluoro-4-[(4-{[(2R)-pyrrolidin-2-yl-methyl]amino}butyl)amino]-N-1,2,4-thiadiazol-5-yl-benzenesulfonamide]	> 3980
8.8	CNCCNCCCCNc1cc(F)c(S(=O)(=O)Nc2ncns2)cc1Cl [Ex 16-48, 5-chloro-2-fluoro-4-[(4-{[2-(methylamino)ethyl]amino}-butyl)amino]-N-1,2,4-thiadiazol-5-ylbenzene-sulfonamide]	> 3750
7.5	NCCNCCCCNc1cc(F)c(S(=O)(=O)Nc2ncc(F)s2)cc1Cl [Ex 16-57, 4-({4-[(2-aminoethyl)-amino]butyl}amino)-5-chloro-2-fluoro-N-(5-fluoro-1,3-thiazol-2-yl) benzene-sulfonamide]	> 4400
8.5	N[C@H]1CCC[C@@H]1NCCCCNc1cc(F)c(S(=O)(=O)Nc2ncns2)cc1Cl [Ex 16-70, 4-[(4-{[(1S,2S)-2-aminocyclopentyl]amino}butyl)amino]-5-chloro-2-fluoro-N-1,2,4-thiadiazol-5-ylbenzenesulfonamide]	> 2710
7	N[C@H]1CCC[C@@H]1NCCCCNc1cc(F)c(S(=O)(=O)Nc2ncc(F)s2)cc1Cl [Ex 16-71, 4-[(4-{[(1S,2S)-2-aminocyclopentyl]amino}butyl)amino]-5-chloro-2-fluoro-N-(5-fluoro-1,3-thiazol-2-yl)benzenesulfonamide]	> 4710
